Species: Rattus norvegicus
Test: DrugMatrix - Regimen: Daily Repeat
Format: toxicity, organism-based, Sprague-Dawley
Parameters: regimen Daily Repeat, gender Male, age 6-8 weeks
Details: in vivo, po, route oral GAVAGE, vehicle .5 % CMC; for BASOPHIL / EOSINOPHIL / ERYTHROCYTE COUNT / HEMATOCRIT / HEMOGLOBIN / LEUKOCYTE COUNT / LYMPHOCYTE / MEAN CORPUSCULAR HEMOGLOBIN / MEAN CORPUSCULAR HEMOGLOBIN CONCENTRATION / MEAN CORPUSCULAR VOLUME / MONOCYTE / NEUTROPHIL / PLATELET COUNT: tissue Blood; for ALANINE AMINOTRANSFERASE / ALBUMIN / ALKALINE PHOSPHATASE / ASPARTATE AMINOTRANSFERASE / BLOOD UREA NITROGEN / CHLORIDE / CHOLESTEROL / CREATINE PHOSPHOKINASE / CREATININE / GLUCOSE / PHOSPHORUS / POTASSIUM / SODIUM / TOTAL PROTEIN: tissue Plasma
[1] = 0 mg/kg, 72 h, dose level Control, time 3 day
[2] = 0 mg/kg, 120 h, dose level Control, time 5 day
[3] = 80 mg/kg, 72 h, dose level Low, time 3 day
[4] = 80 mg/kg, 120 h, dose level Low, time 5 day
[5] = 2000 mg/kg, 72 h, dose level High, time 3 day
[6] = 2000 mg/kg, 120 h, dose level High, time 5 day

In the case of `CN(C/C=C/C#CC(C)(C)C)Cc1cccc2ccccc12` [TERBINAFINE], the BASOPHIL [1] is reported as 0%, the EOSINOPHIL [1] is reported as 0.4% and the “ERYTHROCYTE COUNT” value [1] is reported as 6.43 x10E6/uL. The HEMATOCRIT [1] was 37.36%, the HEMOGLOBIN [1] was 13.98 G/DL and the “LEUKOCYTE COUNT” value [1] was 13 x10E3/uL. For the same compound, the LYMPHOCYTE [1] was 81.4%, the “MEAN CORPUSCULAR HEMOGLOBIN” value [1] was 21.9 pg and the “MEAN CORPUSCULAR HEMOGLOBIN CONCENTRATION” value [1] was 37.4 G/DL. The “MEAN CORPUSCULAR VOLUME” value [1] was 58.52 fL, the MONOCYTE [1] was 0.4% and the NEUTROPHIL [1] was 18%. The “PLATELET COUNT” value [1] was 1386 x10E3/uL, the “ALANINE AMINOTRANSFERASE” value [1] was 39.33 u/L and the ALBUMIN [1] was 3.57 G/DL. For the same compound, the “ALKALINE PHOSPHATASE” value [1] was 283.83 u/L, the “ASPARTATE AMINOTRANSFERASE” value [1] was 69.5 u/L and the “BLOOD UREA NITROGEN” value [1] was 14.83 mg/dL. For the same compound, the CHLORIDE [1] was 107.33 MEQ/L, the CHOLESTEROL [1] was 75.17 mg/dL and the “CREATINE PHOSPHOKINASE” value [1] was 107.67 u/L. It also gave a CREATININE [1] of 0.48 mg/dL, a GLUCOSE [1] of 172.5 mg/dL and a PHOSPHORUS [1] of 10.48 mg/dL. The POTASSIUM [1] was 6.9 MEQ/L, the SODIUM [1] was 152.33 MEQ/L and the “TOTAL PROTEIN” value [1] was 5.9 G/DL. The BASOPHIL [2] was 0%, the EOSINOPHIL [2] was 0.4% and the “ERYTHROCYTE COUNT” value [2] was 6.96 x10E6/uL. The HEMATOCRIT [2] was 41.12%, the HEMOGLOBIN [2] was 15.24 G/DL and the “LEUKOCYTE COUNT” value [2] was 11.06 x10E3/uL. The LYMPHOCYTE [2] was 88.6%, the “MEAN CORPUSCULAR HEMOGLOBIN” value [2] was 21.96 pg and the “MEAN CORPUSCULAR HEMOGLOBIN CONCENTRATION” value [2] was 37.1 G/DL. For the same compound, the “MEAN CORPUSCULAR VOLUME” value [2] was 59.12 fL, the MONOCYTE [2] was 0.2% and the NEUTROPHIL [2] was 10.8%. The “PLATELET COUNT” value [2] was 1155.8 x10E3/uL, the “ALANINE AMINOTRANSFERASE” value [2] was 36.33 u/L and the ALBUMIN [2] was 3.72 G/DL. For the same compound, the “ALKALINE PHOSPHATASE” value [2] was 340.33 u/L, the “ASPARTATE AMINOTRANSFERASE” value [2] was 68.33 u/L and the “BLOOD UREA NITROGEN” value [2] was 15 mg/dL. For the same compound, the CHLORIDE [2] was 108.17 MEQ/L, the CHOLESTEROL [2] was 74.67 mg/dL and the “CREATINE PHOSPHOKINASE” value [2] was 110.67 u/L. For the same compound, the CREATININE [2] was 0.47 mg/dL, the GLUCOSE [2] was 171.33 mg/dL and the PHOSPHORUS [2] was 10.05 mg/dL. The POTASSIUM [2] was 6.7 MEQ/L, the SODIUM [2] was 155.5 MEQ/L and the “TOTAL PROTEIN” value [2] was 6.33 G/DL. For the same compound, the BASOPHIL [3] was 0%, the EOSINOPHIL [3] was 0.33% and the “ERYTHROCYTE COUNT” value [3] was 6.8 x10E6/uL. For the same compound, the HEMATOCRIT [3] was 41.03%, the HEMOGLOBIN [3] was 15.13 G/DL and the “LEUKOCYTE COUNT” value [3] was 14.73 x10E3/uL. The LYMPHOCYTE [3] was 86.67%, the “MEAN CORPUSCULAR HEMOGLOBIN” value [3] was 22.37 pg and the “MEAN CORPUSCULAR HEMOGLOBIN CONCENTRATION” value [3] was 36.9 G/DL. The “MEAN CORPUSCULAR VOLUME” value [3] was 60.57 fL, the MONOCYTE [3] was 0.33% and the NEUTROPHIL [3] was 12.67%. For the same compound, the “PLATELET COUNT” value [3] was 1306.67 x10E3/uL, the “ALANINE AMINOTRANSFERASE” value [3] was 36 u/L and the ALBUMIN [3] was 3.5 G/DL. The “ALKALINE PHOSPHATASE” value [3] was 332 u/L, the “ASPARTATE AMINOTRANSFERASE” value [3] was 55.67 u/L and the “BLOOD UREA NITROGEN” value [3] was 12.67 mg/dL. The CHLORIDE [3] was 110.33 MEQ/L, the CHOLESTEROL [3] was 64 mg/dL and the “CREATINE PHOSPHOKINASE” value [3] was 119.33 u/L. It also gave a CREATININE [3] of 0.57 mg/dL, a GLUCOSE [3] of 180.67 mg/dL and a PHOSPHORUS [3] of 10.6 mg/dL. For the same compound, the POTASSIUM [3] was 7.07 MEQ/L, the SODIUM [3] was 155.67 MEQ/L and the “TOTAL PROTEIN” value [3] was 5.87 G/DL. The BASOPHIL [4] was 0%, the EOSINOPHIL [4] was 0.33% and the “ERYTHROCYTE COUNT” value [4] was 5.98 x10E6/uL. For the same compound, the HEMATOCRIT [4] was 35.23%, the HEMOGLOBIN [4] was 12.83 G/DL and the “LEUKOCYTE COUNT” value [4] was 13.7 x10E3/uL. For the same compound, the LYMPHOCYTE [4] was 85.33%, the “MEAN CORPUSCULAR HEMOGLOBIN” value [4] was 21.47 pg and the “MEAN CORPUSCULAR HEMOGLOBIN CONCENTRATION” value [4] was 36.4 G/DL. The “MEAN CORPUSCULAR VOLUME” value [4] was 58.97 fL, the MONOCYTE [4] was 0% and the NEUTROPHIL [4] was 14%. The “PLATELET COUNT” value [4] was 1155 x10E3/uL, the “ALANINE AMINOTRANSFERASE” value [4] was 39 u/L and the ALBUMIN [4] was 3.43 G/DL. The “ALKALINE PHOSPHATASE” value [4] was 357.33 u/L, the “ASPARTATE AMINOTRANSFERASE” value [4] was 60.33 u/L and the “BLOOD UREA NITROGEN” value [4] was 13.33 mg/dL. For the same compound, the CHLORIDE [4] was 106.67 MEQ/L, the CHOLESTEROL [4] was 67.33 mg/dL and the “CREATINE PHOSPHOKINASE” value [4] was 121.67 u/L. The CREATININE [4] was 0.47 mg/dL, the GLUCOSE [4] was 151.33 mg/dL and the PHOSPHORUS [4] was 9.77 mg/dL. For the same compound, the POTASSIUM [4] was 6.7 MEQ/L, the SODIUM [4] was 151.33 MEQ/L and the “TOTAL PROTEIN” value [4] was 5.73 G/DL. The BASOPHIL [5] was 0%, the EOSINOPHIL [5] was 0% and the “ERYTHROCYTE COUNT” value [5] was 6.96 x10E6/uL. For the same compound, the HEMATOCRIT [5] was 41.1%, the HEMOGLOBIN [5] was 15.27 G/DL and the “LEUKOCYTE COUNT” value [5] was 8.67 x10E3/uL. For the same compound, the LYMPHOCYTE [5] was 76.67%, the “MEAN CORPUSCULAR HEMOGLOBIN” value [5] was 21.9 pg and the “MEAN CORPUSCULAR HEMOGLOBIN CONCENTRATION” value [5] was 37.13 G/DL. The “MEAN CORPUSCULAR VOLUME” value [5] was 58.93 fL, the MONOCYTE [5] was 0% and the NEUTROPHIL [5] was 23.33%. For the same compound, the “PLATELET COUNT” value [5] was 1235.33 x10E3/uL, the “ALANINE AMINOTRANSFERASE” value [5] was 55.67 u/L and the ALBUMIN [5] was 3.63 G/DL. For the same compound, the “ALKALINE PHOSPHATASE” value [5] was 246.33 u/L, the “ASPARTATE AMINOTRANSFERASE” value [5] was 120.33 u/L and the “BLOOD UREA NITROGEN” value [5] was 11.33 mg/dL. For the same compound, the CHLORIDE [5] was 108.67 MEQ/L, the CHOLESTEROL [5] was 105.33 mg/dL and the “CREATINE PHOSPHOKINASE” value [5] was 122 u/L. For the same compound, the CREATININE [5] was 0.5 mg/dL, the GLUCOSE [5] was 140.67 mg/dL and the PHOSPHORUS [5] was 10.4 mg/dL. For the same compound, the POTASSIUM [5] was 6.3 MEQ/L, the SODIUM [5] was 156.33 MEQ/L and the “TOTAL PROTEIN” value [5] was 5.9 G/DL. The BASOPHIL [6] was 0%, the EOSINOPHIL [6] was 0.33% and the “ERYTHROCYTE COUNT” value [6] was 6.14 x10E6/uL. For the same compound, the HEMATOCRIT [6] was 37.1%, the HEMOGLOBIN [6] was 13.7 G/DL and the “LEUKOCYTE COUNT” value [6] was 6.8 x10E3/uL. The LYMPHOCYTE [6] was 87.33%, the “MEAN CORPUSCULAR HEMOGLOBIN” value [6] was 22.37 pg and the “MEAN CORPUSCULAR HEMOGLOBIN CONCENTRATION” value [6] was 36.9 G/DL. For the same compound, the “MEAN CORPUSCULAR VOLUME” value [6] was 60.57 fL, the MONOCYTE [6] was 0% and the NEUTROPHIL [6] was 12.33%. For the same compound, the “PLATELET COUNT” value [6] was 1319.67 x10E3/uL, the “ALANINE AMINOTRANSFERASE” value [6] was 37.67 u/L and the ALBUMIN [6] was 3.6 G/DL. For the same compound, the “ALKALINE PHOSPHATASE” value [6] was 327.67 u/L, the “ASPARTATE AMINOTRANSFERASE” value [6] was 56 u/L and the “BLOOD UREA NITROGEN” value [6] was 12 mg/dL. For the same compound, the CHLORIDE [6] was 106.33 MEQ/L, the CHOLESTEROL [6] was 84.67 mg/dL and the “CREATINE PHOSPHOKINASE” value [6] was 117.33 u/L. It also gave a CREATININE [6] of 0.53 mg/dL, a GLUCOSE [6] of 141 mg/dL and a PHOSPHORUS [6] of 10.63 mg/dL. The POTASSIUM [6] was 6.4 MEQ/L, the SODIUM [6] was 152 MEQ/L and the “TOTAL PROTEIN” value [6] was 5.73 G/DL.
